Here are results for five compounds from patent publication US20120276122A1, “METHODS FOR DIAGNOSIS AND TREATMENT OF CELLULAR PROLIFERATIVE DISORDERS” (Sanford-Burnham Medical Research Institute, priority 2010, published 2012).

For experiment [1], the system named is Jun2 promoter. Nature of the experiment: Jun2 promoter-luciferase assay (ATF2 transcriptional activity). Type of experiment: cell-based. To be noted: for Jun2-luciferase activity: SCC9. The procedure:
(§1) C) is a photograph depicting coverslip-grown SCC9 cells that were co-treated with 40 ng/ml leptomycin B (LMB) and ETO overnight, and were subsequently fixed and immunofluorescently stained as indicated. D) is a gel depicting SCC9 cells transfected with the Jun2 promoter-luciferase construct and assayed for luciferase activity prior to (Control) or after ETO treatment. E) is a bar graph depicting luciferase activity of mitochondria (M) purified from ETO-treated SCC9 cells subject to proteolysis protection assay with titrated concentrations of trypsin: 0.2 (1), 0.1 (2), 0.05 (3), 0.025 (4), or 0.0125 (5) μg in the absence or presence of 1% Triton X-100 (TX) detergent. Scale bars represent 10 μm.
FIG. 3A) is an image depicting coverslip-grown SCC9 cells treated with 1 or 5 μM PKCε translocation inhibitor overnight, and immunofluorescently stained with indicated antibodies. B) is a photograph depicting coverslip-grown SCC9 cells treated with 10 nM siRNA targeting PKCε overnight were immunofluorescently stained with indicated antibodies. […] F) is a photograph depicting coverslip-grown SCC9 cells were transfected with HA-tagged wildtype ATF2 (WT), ATF2T52A or ATF2T52E, and subsequently immunofluorescently stained with indicated antibodies. G-H) is a series of bar graphs that show quantitation of (Left) SCC9 cells transfected with Jun2 promoter-luciferase construct and empty vector (EV) or caPKCε, assayed for luciferase activity after ETO treatment. (Right) SCC9 cells stably knocked down for ATF2 with a 3′-UTR-targeted shRNA, reconstituted with Jun2 promoter-luciferase construct and ATF2 (WT), ATF2T52A or ATF2T52E and subsequently assayed for luciferase activity. Scale bars represent 10 μm.

Experiment [2] has as its target T1, PKCε (Homo sapiens, UniProt Q02156).
T1 sequence (Q02156 1-737): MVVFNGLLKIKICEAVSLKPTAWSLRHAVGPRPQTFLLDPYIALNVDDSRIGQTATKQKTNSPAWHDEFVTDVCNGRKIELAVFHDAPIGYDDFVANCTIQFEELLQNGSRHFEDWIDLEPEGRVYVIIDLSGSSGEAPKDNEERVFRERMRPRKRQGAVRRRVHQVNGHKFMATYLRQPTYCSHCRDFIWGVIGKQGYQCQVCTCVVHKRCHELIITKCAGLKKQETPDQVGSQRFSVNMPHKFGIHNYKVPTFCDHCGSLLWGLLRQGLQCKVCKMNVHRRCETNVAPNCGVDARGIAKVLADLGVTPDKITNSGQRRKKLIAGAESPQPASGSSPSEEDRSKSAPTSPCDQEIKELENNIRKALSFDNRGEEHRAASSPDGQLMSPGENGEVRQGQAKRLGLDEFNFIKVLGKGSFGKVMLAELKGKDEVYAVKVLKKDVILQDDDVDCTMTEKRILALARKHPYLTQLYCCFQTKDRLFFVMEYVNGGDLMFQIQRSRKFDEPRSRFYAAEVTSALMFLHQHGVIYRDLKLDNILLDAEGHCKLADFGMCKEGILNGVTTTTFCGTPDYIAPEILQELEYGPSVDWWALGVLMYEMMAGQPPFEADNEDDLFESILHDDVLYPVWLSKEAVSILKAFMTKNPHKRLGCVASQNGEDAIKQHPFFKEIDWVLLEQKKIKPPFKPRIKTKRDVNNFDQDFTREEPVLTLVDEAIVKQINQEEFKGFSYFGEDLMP
The experiment is described as follows: In vitro kinase assay, PKCε phosphorylation of GST-tagged ATF2 50-100 peptide. Type of experiment: biochemical. The procedure:
To determine whether Thr52, the predicted PKCε site for phosphorylation of ATF2, regulates mitochondrial translocation of ATF2, phosphorylation of ATF2 by PKCε in vitro was assessed, as well as the localization of ATF2^T52A (a non-phosphorylatable alanine phosphomutant) and ATF2^T52E (a glutamic acid phosphomimic). […] This phosphorylation is inhibited upon addition of PKCε catalytic inhibitor, Gö6850 (FIG. 3E). […] Collectively, these findings establish that ATF2 mitochondrial localization is regulated by PKCε through phosphorylation at T52.

The test system of experiment [3] is SCC9 cells. The experiment is described as follows: ATF2 mitochondrial localization, immunofluorescent staining of coverslip-grown cells. Type of experiment: cell-based. To be noted: for cells with ATF2 accumulation at the mitochondria: SCC9, 5 μM etoposide overnight, 3 replicate coverslips. The method, then:
as §1, with “FIG. 1A) is an image depicting control, 5 μM etoposide-treated (ETO, overnight treatment), UVC-treated (20 J/m^2), ionizing radiation-treated (IR, 5Gy), or 40 ng/ml leptomycin B (LMB) and ETO co-treated SCC9 cells grown on coverslips were immunofluorescently stained for HSP60,ATF2 or DNA. Immunostained control and ETO panels represent 89±4% and 64±11%, respectively, of the cells from 3 independent replicate coverslips per condition (n>100 cells counted per replicate). […] C)” for “C)”
Following indicated treatments, coverslip-grown cells were fixed in fixation buffer containing 4% formaldehyde and 2% sucrose in phosphate buffered saline (PBS) for 20 minutes at room temperature. After fixation, coverslips were rinsed twice in PBS and permeabilized in permeabilization buffer (0.4% Triton X-100 (TX-100)/0.4% bovine serum albumin (BSA) in PBS) for 20 minutes. Primary antibodies were applied at 1:250 dilution in staining buffer (0.1% TX-100/0.1% BSA in PBS) overnight at 4° C. in a humid chamber. Coverslips were subsequently subject to 5 standing washes in wash buffer (0.2% TX-100/0.2% BSA in PBS, 5 minutes per wash). Secondary antibodies (Alexa Fluor secondary 350, 488 or 568, Invitrogen) were applied at 1:250 dilution in staining buffer for 2-3 hours at room temperature in a humid chamber in the dark. Prior to mounting with Vectorshield containing DAPI (Vector Laboratories, CA), coverslips were washed twice additionally in wash buffer. Immunofluorescent analysis was conducted on an Olympus TH4-100 fluorescent microscope. At least 3 Z-planes per field were captured and analyzed using Slidebook V.4.1, and Z-projection images of average intensity were constructed using ImageJ V.1.43u.

Experiment [4] has as its system SCC9 cells. Nature of the experiment: Annexin-V / propidium iodide staining and FACS analysis (cell death). Type of experiment: cell-based. To be noted: SCC9, 5 μM, overnight, representative FACS plot.
Procedure: Cells were stained with Annexin-V and subject to FACS analysis. n=10,000 cells per replicate; 3 replicates per condition were performed. •: p=0.0001; #: p<0.0001.
For FACS analyses, n=10,000 cells per replicate over 3 independent replicates.
Experiment [5] relates to ATF2 pT52. The experiment is described as follows: Immunoblot densitometry of pT52/Total ATF2. The class given is cell-based. The note with it: SCC9, etoposide treatment. (Immunoblotting shows a protein as a band on a membrane.)
Source text: B) Control or ATF2 -knocked down LU1205 cells were subject to immunoblot analysis with indicated antibodies. […] D) is an image showing control or ETO-treated coverslip-grown LU1205, 501Mel or UACC903 cells immunofluorescently stained with indicated antibodies.
In experiment [6] the test system is PKCε pS729. Nature of the experiment: Immunoblot of pS729 PKCε (active PKCε). Type of experiment: cell-based. The note with it: SCC9, 5 μM overnight.
For experiment [7], the system named is SCC9 cells. Nature of the experiment: HK1 co-localization with mitochondria (immunostaining and MitoTracker). To be noted: SCC9, 5 μM etoposide overnight. Type of experiment: cell-based. From the text: The arrowheads indicate HA-positive cells. Scale bars represent 10 μm.
Experiment [8] deals with melanoma cells. To be noted: melanoma cells versus melanocytes; cited from earlier work.
For experiment [9], the system named is ATF2. The note with it: cited from earlier work; for ATF2 nuclear exclusion: melanoma cells.
Experiment [10] has as its system melanoma. To be noted: syngeneic mice, human melanoma xenografts; cited from earlier work. For orientation: In xenograft studies the graft and the host belong to different species.

As to `CN(C)CCCn1cc(C2=C(c3c[nH]c4ccccc34)C(=O)NC2=O)c2ccccc21` [Gö6850], the Jun2-luciferase activity entry in [1] is listed as “reduce Jun2-luciferase activity to similar extents as knockdown of ATF2”. Also, the “PKCε phosphorylation of WT ATF2 peptide” value in experiment [2] is “inhibited”.

Take `COc1cc([C@@H]2c3cc4c(cc3[C@@H](O[C@@H]3O[C@@H]5CO[C@@H](C)O[C@H]5[C@H](O)[C@H]3O)[C@H]3COC(=O)[C@H]23)OCO4)cc(OC)c1O` [etoposide]: the results for the “cells with ATF2 accumulation at the mitochondria” value in experiment [3] and in [3] (listed as ETO) were ~64% and 64±11%, respectively. Further, the Jun2-luciferase activity entry in experiment [1] is reported as “reduce Jun2-luciferase activity to similar extents as knockdown of ATF2”. The “reduction of luciferase activity driven by the Jun2 promoter” value in experiment [1] (SCC9, after ETO treatment) is listed as ~50%. Besides, the “Annexin V-negative (AV−) percentage” value in experiment [4] is on record as 89.5%. Besides, in [4], the “Annexin V-positive (AV+) percentage” value was 11.5%. Also, the “levels of pT52” value in experiment [5] is on record as “lower”. For the same compound, in experiment [6], the “PKCε phosphorylation on Ser729” value was “decreased”. The “HK1 co-localization with mitochondria” value in experiment [7] is “enhanced”.

As to `CCC(=C/[C@H](C)C/C=C/C(C)=C/[C@@H](C)C(=O)[C@@H](C)[C@H](O)[C@@H](C)C/C(C)=C/C(=O)O)/C=C/[C@@H]1OC(=O)C=C[C@@H]1C` [leptomycin B], the “mitochondrial accumulation of ATF2 following etoposide treatment” value in [3] (SCC9, 40 ng/ml leptomycin B with ETO) is reported as “prevented mitochondrial accumulation of ATF2”. Moreover, the “ATF2 mitochondrial translocation following inhibition of PKCε” value in experiment [3] (SCC9, leptomycin B pre-treatment 40 ng/ml 6 hours, then 5 μM PKCε-i) was “efficiently blocked”.

Consider “ATF2 50-60 peptide: 10 amino acid long peptide derived from ATF2 (amino acids 50-60), contains T52 (EMTLKFGPARN; UniProt P15336 50-60, looked up, fragment)”, for which the sensitization to apoptosis result in experiment [8] is on record as “sensitized melanoma cells (but not melanocytes) to apoptosis”. Moreover, in experiment [9], the ATF2 transcriptional activity entry is recorded as “inhibit ATF2 transcriptional activity” and the ATF2 nuclear exclusion result is recorded as “caused nuclear exclusion of ATF2”. For the same compound, the melanoma growth result in experiment [10] was “inhibit melanoma growth in syngeneic mice”.

Regarding “ATF2 50-100 peptide: 50 amino acid long peptide derived from ATF2 (amino acids 50-100), contains T52 (EMTLKFGPARNDSVIVADQTPTPTRFLKNCEEVGLFNELASPFENEFKKAS; UniProt P15336 50-100, looked up, fragment)”, in experiment [8], the sensitization to apoptosis result was “sensitized melanoma cells (but not melanocytes) to apoptosis”. In addition, in experiment [9], the ATF2 transcriptional activity entry is listed as “inhibit ATF2 transcriptional activity” and the ATF2 nuclear exclusion result is “caused nuclear exclusion of ATF2”. For the same compound, the melanoma growth result in [10] was “inhibit melanoma growth in syngeneic mice”.
